Data published in US20100210682A1, “Repeated Dosing of TRPV1 Antagonists” (ABBOTT LABORATORIES, priority 2009, published 2010).
Values after ≈ are worked out from the molar mass of the structure shown. Marks after values point to notes of the source that are not given here.

Assays:
[1] = test system: MIA-induced osteoarthritic rats; test: Osteoarthritic pain model in rats (MIA), weight bearing difference; type: in vivo; conditions: po, 96 h; rat, p.o., acute dosing, 4 days following MIA injection; read-out: ED50, reversal of difference in weight bearing
Experimental: Unilateral knee joint osteoarthritis was induced in the rats by a single intraarticular (i.a.) injection of sodium monoiodoacetate (MIA) (Sigma, St. Louis, Mo.) (3 mg in 0.05 mL sterile isotonic saline) into the joint cavity using a 26 G needle under light (2-4%) halothane (Halocarbon Laboratories, River Edge, N.J.) anesthesia [Bove S E, Calcaterra S L, Brooker R M, Huber C M, Guzman R E, Juneau P L, et al. Weight bearing as a measure of disease progression and efficacy of anti-inflammatory compounds in a model of monosodium iodoacetate-induced osteoarthritis. Osteoarthritis Cartilage 2003; 11:821-30]. […]
MIA-induced nociception can be assessed by measuring differences in weight bearing (WBD) or decrease in grip force (GF) several days to weeks following MIA injection [Bove S E, Calcaterra S L, Brooker R M, Huber C M, Guzman R E, Juneau P L, et al. Weight bearing as a measure of disease progression and efficacy of anti-inflammatory compounds in a model of monosodium iodoacetate-induced osteoarthritis. […]
Differences in weight bearing on the injured vs uninjured hind limb were assessed by placing the animals in an Incapacitance Tester (Linton, Stoelting, Wood Dale, Ill.). […] The animals were allowed to acclimate for approximately 30 s before weight-bearing readings (measured in grams) were recorded. […]

TRPV1 receptor = TRPV1 receptor (Homo sapiens, UniProt Q8NER1); test: Block of TRPV1 receptor activation by capsaicin in vitro; type: biochemical
[2] = Plasma levels in osteoarthritic rats after acute and repeated dosing; type: in vivo, rat; conditions: derived from modeling of PK/PD data from acute and chronic dosing studies
Experimental: In the osteoarthritic pain model, animals were dosed twice-daily for 12 days using a dose that was non-efficacious following a single administration (e.g. 3 μmol/kg p.o. for Compound A). The animals were tested 1 hour after acute dosing (p.o.) and on day 12, 1 hour after oral dosing with either vehicle or the test compound.

[3] = test system: bone cancer pain, C3H/HeJ mice; test: Bone cancer pain model in mice (2472 sarcoma); type: in vivo; conditions: mouse
Experimental: Male Sprague-Dawley rats (Charles River, Wilmington, Mass.) weighing 200-300 grams were utilized in most experiments. Animals were group housed in AAALAC approved facilities at Abbott Laboratories in a temperature-regulated environment with lights on between 0700 and 2000 h. Food and water were available ad libitum except during testing. All animal handling and experimental protocols were approved by an Institutional Animal Care and Use Committee (IACUC). All experiments were performed during the light cycle. The bone cancer pain experiments were performed on adult male C3H/HeJ mice (Jackson Laboratories, Bar Harbor, Me.), approximately 7-8 weeks old, weighing 25-30 g at the time of tumor cell injection. The mice were housed in accordance with National Institutes of Health Guidelines and kept in a vivarium maintained at 22° C. with a 12 h alternating light-dark cycle. They were given food and water ad libitum except during testing. All procedures were approved by the Institutional Animal Care and Use Committee at the University of Minnesota. All procedures also adhered to the guidelines of the Committee for Research and Ethical Issues of IASP published in PAIN, 16 (1983) 109-110.
An arthrotomy was performed following induction of general anesthesia with sodium pentobarbital (50 mg/kg, intraperitoneal (i.p.)). A needle was inserted into the intramedullary canal to create a pathway for the sarcoma cells. A depression was then made using a pneumatic dental high-speed hand-piece. Mice were injected with Hanks-buffered saline (HBSS) (20 μL, Sigma, St. Louis, Mo.) or HBSS containing the 2472 sarcoma line (ATCC, Rockville, Md., USA). The injection site was sealed with a dental amalgam plug to confine the cells within the intramedullary canal followed by irrigation with sterile water. […] Clips were removed at day 5 so as not to interfere with behavioral testing.
A variety of behavioral measurements was used to assess the extent of bone cancer pain as described previously [Schwei M J, Honore P, Rogers S D, Salak-Johnson J L, Finke M P, Ramnaraine M L, et al. Neurochemical and cellular reorganization of the spinal cord in a murine model of bone cancer pain. J Neurosci 1999; 19:10886-97]. All mice were tested and values obtained for behavioral responses before compound or vehicle administration, and then retested 1 hour following oral dosing. Percent effects were calculated as follows: (1−((Compound Value−Sham Value)/(Vehicle Value−Sham Value)))×100. The number of spontaneous guarding behaviors, representative of nociceptive behavior, was recorded during a 2 min observation period. Guarding was defined as the amount of time an animal held the hind paw aloft while not ambulatory. Mechanical allodynia at the knee joint was evaluated by normally non-noxious palpation of the distal femur every second for 2 min. Following the 2 min palpation, the mice were placed in the observation box and their palpation-induced guarding behavior was measured for an additional 2 min. Normal limb use during spontaneous ambulation in an open field was scored on a scale of 5-0: (5) normal use, (4) some limping, but not pronounced, (3) pronounced limp, (2) limp and guarding behavior, (1) partial non-use of limb, and (0) complete lack of limb use.
Compound A was dissolved in 100% polyethylene glycol (PEG 400) for oral administration in a 2 mL/kg injection volume. Compounds B, C, and D were dissolved in 10% ethanol, 20% Tween 80 and 70% polyethylene glycol-400 for oral administration in a 2 mL/kg injection volume. All compounds were dosed orally (p.o.) 60 minutes before behavioral testing.

[4] = 30 μmol/kg p.o., acute dosing, fifteen days following tumor cells inoculation

Chain of TRPV1 receptor (Q8NER1 whole entry): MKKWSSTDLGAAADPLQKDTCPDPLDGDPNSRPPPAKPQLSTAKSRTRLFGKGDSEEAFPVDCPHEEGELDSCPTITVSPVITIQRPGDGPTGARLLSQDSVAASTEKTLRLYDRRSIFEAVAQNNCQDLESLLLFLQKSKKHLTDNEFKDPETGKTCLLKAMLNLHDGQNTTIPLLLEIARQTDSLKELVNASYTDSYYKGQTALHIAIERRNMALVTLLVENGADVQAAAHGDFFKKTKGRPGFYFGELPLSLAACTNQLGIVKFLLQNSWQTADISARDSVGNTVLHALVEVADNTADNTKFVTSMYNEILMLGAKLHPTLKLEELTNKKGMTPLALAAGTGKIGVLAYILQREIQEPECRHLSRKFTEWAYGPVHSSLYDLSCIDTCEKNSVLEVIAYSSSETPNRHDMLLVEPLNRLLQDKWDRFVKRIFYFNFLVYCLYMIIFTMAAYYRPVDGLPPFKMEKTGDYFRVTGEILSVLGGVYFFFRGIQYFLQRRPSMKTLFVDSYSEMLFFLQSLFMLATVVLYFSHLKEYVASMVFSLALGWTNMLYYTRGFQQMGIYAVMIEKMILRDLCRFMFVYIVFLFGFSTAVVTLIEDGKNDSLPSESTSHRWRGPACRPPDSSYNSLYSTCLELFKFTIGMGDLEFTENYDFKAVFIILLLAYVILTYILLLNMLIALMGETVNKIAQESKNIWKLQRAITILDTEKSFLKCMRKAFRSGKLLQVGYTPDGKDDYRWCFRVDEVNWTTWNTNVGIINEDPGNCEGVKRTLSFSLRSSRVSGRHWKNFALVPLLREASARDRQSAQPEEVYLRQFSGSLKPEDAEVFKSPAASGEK

CC(C)(C)c1ccc2c(c1)CC[C@H]2NC(=O)Nc1cccc2[nH]ncc12 [Compound A, N-[(1R)-5-tert-butyl-2,3-dihydro-1H-inden-1-yl]-N′-1H-indazol-4-ylurea]
ED50 [1]: 30 µmol/kg
ability to block TRPV1 receptor activation by capsaicin in vitro (TRPV1 receptor): potent
Plasma Levels, Chronic ([2]; 3 μmol/kg BID 12 days): 17** at 3 μmol/kg ng/mL
EC50 ([2]; Rattus norvegicus, osteoarthritic rats): 0.085 µg/mL (≈ 0.244 µM)
reversal of spontaneous guarding ([3]; 10 μmol/kg p.o. twice-daily for 9 days): 45±3%
reversal of evoked pain induced by palpation of the cancerous limb (% effects) ([3]; 30 μmol/kg p.o., acute dosing): 65±4%
reversal of spontaneous guarding [3, 4]: 70±1%
reversal of the pain-induced decrease in ambulation [3, 4]: 85±15%
evoked pain induced by palpation of the cancerous limb, repeated vs single dosing ([3]; repeated dosing): Improved analgesic efficacy
effect on spontaneous ambulation ([3]; repeated dosing (10 μmol/kg p.o. twice-daily for 9 days)): 43±0%
analgesic effect on spontaneous ambulation ([3]; single dose 10 μmol/kg p.o.): 19±0%
analgesic effect on spontaneous guarding ([3]; single dose 10 μmol/kg p.o.): 18±6%
